Converted amounts (≈) assume the structure as drawn.

Here are results for nine molecules from patent US20130122541A1, “MICROORGANISM PRODUCTION OF HIGH-VALUE CHEMICAL PRODUCTS, AND RELATED COMPOSITIONS, METHODS AND SYSTEMS” (The Regents of the University of Colorado, priority 2010, published 2013).

The subject of one assay is MACH1-T1R. Briefly: MIC, microaerobic 96 well-plate, MOPS minimal media, IroK expression studies (Example 45). It counts as cell-based, E. coli. To be noted: for MIC of other organic acids of similar molecular makeup on IroK expression: IroK expressed from pKK223-3. As for the experimental part:
The two oligonucleotides were added in a 1:1 ratio and annealed according to standard methodology in a thermal cycler. Ligation of the annealed primer product with the pKK223-3 expression vector (SEQ ID NO:008, Pharmacia, Piscataway, N.J.) was performed with T4 Ligase (Invitrogen, Carlsbad, Calif.) and incubated at 25° C. overnight. The ligation product was then electroporated into competent MACH1™-T1^R, plated on LB+ampicillan, and incubated at 37° C. for 24 hours. Plasmids were isolated and confirmed by purification and subsequent restriction digest and sequencing (Macrogen, Rockville, Md.). MICs were then determined corresponding to 1 mM IPTG induction.
The minimum inhibitory concentration (MIC) was determined microaerobically in a 96 well-plate format. Overnight cultures of strains were grown in 5 mL LB (with antibiotic where appropriate). A 1% (v/v) inoculum was introduced into a 15 ml culture of MOPS minimal media. After the cells reached mid-exponential phase, the culture was diluted to an OD600 of 0.200. The cells were further diluted 1:20 and a […] aliquot was used to inoculate each well of a 96 well plate (˜10^4 cells per well).

The test system of assay [1] is E. coli K12. Briefly: microbe, parasite or virus in culture. To be noted: Escherichia coli, K12, 24 h, read-out: Minimum inhibitory concentration (MIC) of 3-HP for E. coli K12 in M9 minimal media supplemented with the substance.
In a further assay the test system is BX3_0194. The assay is described as follows: 3-HP production by BX3_0194 in SM3 medium without and with 10 μg/ml cerulenin. It counts as cell-based, E. coli. Here is the method:
All data are the average of triplicate cultures.
Under these conditions, the specific productivity after 24 hours is 1.3 g 3HP per gDCW.

The next assay deals with BX3_0195. The assay is described as follows: 3-HP production by BX3_0195 in SM3 medium without and with 10 μg/ml cerulenin. It counts as cell-based, E. coli.
The test system of a further assay is BX3_0206. The assay is described as follows: 3-HP production by BX3_0206 in SM3 medium without and with 10 μg/ml cerulenin. It counts as cell-based, E. coli. Here is the method: All data are the average of triplicate cultures. […] Under these conditions, the specific productivity after 24 hours is […] 3HP per gDCW.
The test system of assay [2] is E. coli K12. To be noted: aerobic, 24 h; putrescine, cadaverine, spermidine 0.1 g/L, sodium bicarbonate 20 mM; value is the 3-HP concentration.
A further assay deals with B. subtilis. Briefly: MIC evaluation of 3-HP, B. subtilis aerobic, M9 media + glutamate, 96 well-plate, 24 h (Common Methods). It counts as cell-based. As for the experimental part: For MIC evaluations, the final results are expressed in chemical agent concentrations determined by analysis of the stock solution by HPLC (i.e., see Subsection IIIb).
The minimum inhibitory concentration (MIC) was determined aerobically in a 96 well-plate format. […] Media supplements were added according to levels reported in the Supplements Table where specified. Overnight cultures of strains were grown in triplicate in 5 mL LB (with antibiotic where appropriate). A 1% (v/v) inoculum was introduced into a 5 ml culture of M9 minimal media+glutamate.

Where [3] appears, read: 24 hr, SM3 medium, presence of 10 μg/ml cerulenin.

Description for BX3_0195: Cultures were started from freezer stocks by standard practice (Sambrook and Russell, 2001) into 50 mL of LB media plus 100 μg/mL ampicillin and grown to stationary phase overnight at 37° C. with rotation at 225 rpm. Five ml of this culture were transferred to 100 ml of SM3 media plus 40 g/L glucose, 100 μg/ml ampicillin, and 1 mM IPTG in triplicate 250-ml baffled flasks and incubated at 37° C., 225 rpm. […] Dry cell weight (DCW) is calculated as 0.33 times the measured OD600 value, based on baseline DCW to OD600 determinations. All data are the average of triplicate cultures.

As to `CC(=O)O` [acetic, acetic acid], the “MIC of other organic acids of similar molecular makeup on IroK expression” value (from here on “MIC of other organic acids … on IroK expression”) in the assay with MACH1-T1R is “unchanged”.
Turning to `C=CC(=O)O` [acrylic, acrylic acid], the “MIC of other organic acids … on IroK expression” value with MACH1-T1R was “unchanged”.
Take `NCCCCCN` [cadaverine]: the MIC in the assay on E. coli K12 [1] came to 30 mg/mL (≈ 294 mM).
For the molecule `C/C=C/C/C=C/CCC(=O)[C@H]1O[C@H]1C(N)=O` [cerulenin], the “specific productivity after 24 hours” value with BX3_0194 stood at 1.3 g 3HP per gDCW; with BX3_0195, 0.54 g 3HP per gDCW; in the assay on BX3_0206 (BX3_0206, SM3 medium, 10 μg/ml cerulenin), 0.20 g 3HP per gDCW. Also, the “3HP” value in the assay on BX3_0194 (4 hr) stood at 0.003 g/L; in the assay with BX3_0194 (6 hr), 0.14 g/L; with BX3_0194 (8 hr), 0.43 g/L; in the assay with BX3_0194 (24 hr), 1.43 g/L; in the assay on BX3_0195 (4 hr) it was 0.003 g/L; with BX3_0195 (6 hr) it was 0.07 g/L. The “3HP” value with BX3_0195 (8 hr) came to 0.31 g/L; with BX3_0195 (24 hr), 1.17 g/L; in the assay with BX3_0206 (setting [3]) it was 0.43 g/L. The OD600 in the assay with BX3_0194 (4 hr) was determined as 1.3; with BX3_0194 (6 hr) it was 2.6; in the assay on BX3_0194 (8 hr), 3.1; in the assay with BX3_0194 (24 hr) it was 3.3; with BX3_0195 (4 hr), 0.97; in the assay on BX3_0195 (6 hr) it was 1.57. Also, the OD600 in the assay with BX3_0195 (8 hr) was determined as 2.36; in the assay on BX3_0195 (24 hr), 6.59; with BX3_0206 (setting [3]) it was 6.4.
For `CC(O)C(=O)O` (stereo not shown) [lactic, lactic acid], in the assay with MACH1-T1R, the “MIC of other organic acids … on IroK expression” value is “unchanged”.
As to `NCCCCN` [putrescine], the MIC with E. coli K12 [1] was determined as 40 mg/mL (≈ 454 mM).
As for `O=C([O-])O.[Na+]` [sodium bicarbonate], the “Minimum inhibitory concentration (MIC) of 3-HP for E. coli K12 in M9 minimal media supplemented with the substance” value with E. coli K12 [2] was 30 mg/mL.
On to `NCCCCNCCCN` [spermidine], for which the “Avg 24 hr ΔOD600” value in the assay with B. subtilis (3HP tolerance, B. subtilis 168, M9 + glu + trp plus the named supplement(s)) is 0.09. The “% Increase Over Control” value with B. subtilis (ΔOD600 with named supplement(s) vs B. subtilis 168 without supplement) is given as 140%. Further, the MIC in the assay with E. coli K12 [1] was 40 mg/mL (≈ 275 mM).
In the case of MKPALRDFIAIVQERLASVTA [IroK], the “fold increase in MIC of 3-HP on increased expression of IroK” value in the assay on MACH1-T1R (expressed from pKK223-3, 1 mM IPTG, microaerobic, MOPS minimal media, 24 h) is given as more than 2 fold.
